# Assay: log P determination by reversed-phase HPLC (EEC Directive 79/831 Annex V.A8; acidic or neutral mobile phase)
# Assay type: physicochemical
# Conditions: HPLC reversed-phase C18, 43° C., acidic range: 0.1% aqueous phosphoric acid, acetonitrile (marked a))
# Description: The log P values given in the table were determined in accordance with EEC Directive 79/831 Annex V.A8 by HPLC (High Performance Liquid Chromatography) using a reversed-phase column (C 18). Temperature: 43° C.
# (a) Mobile phases for the determination in the acidic range: 0.1% aqueous phosphoric acid, acetonitrile; linear gradient from 10% acetonitrile to 90% acetonitrile—the corresponding measurement results are marked a) in Table 1.
# (b) Mobile phases for the determination in the neutral range: 0.01 molar aqueous phosphate buffer solution, acetonitrile; linear gradient from 10% acetonitrile to 90% acetonitrile—the corresponding measurement results are marked b) in Table 1.
row,SMILES,logP
1,CCn1ncc(C(=O)c2ccc(S(C)(=O)=O)c(CNOCc3ccccc3)c2Cl)c1O [Example 200],(I-2) logP = 2.31^a)
2,CS(=O)(=O)c1ccc(C(=O)C2C(=O)CCCC2=O)c(Cl)c1CNOCc1ccccc1 [Example 199],(I-2) logP = 3.04^a)

# Same assay, conditions: HPLC reversed-phase C18, 43° C.; acidic range: 0.1% aqueous phosphoric acid, acetonitrile gradient (marked a))
row,SMILES,logP
1,O=C1CCCC(=O)C1C(=O)c1ccc(Cl)c(OCCNS(=O)(=O)C(F)(F)F)c1Cl [Example 9],logP = 3.25^a)
2,CCS(=O)(=O)NCCOc1c(Br)ccc(C(=O)C2C(=O)CCCC2=O)c1Br [Example 20],logP = 2.45^a)
3,CCONCc1c(Cl)ccc(C(=O)C2C(=O)CCCC2=O)c1Cl [Example 133],logP = 2.75^a)
4,CCn1ncc(C(=O)c2ccc(Br)c(OCCNS(C)(=O)=O)c2Br)c1O [Example 17],logP = 1.71^a)
5,C=CCN(Cc1c(S(C)(=O)=O)ccc(C(=O)c2cnn(CC)c2O)c1Cl)OC [Example 157],(I-2) logP = 2.29^a)
6,CCONCc1c(S(C)(=O)=O)ccc(C(=O)c2cnn(CC)c2O)c1Cl [Example 136],logP = 1.58^a)
7,CCONCc1c(Cl)ccc(C(=O)c2cnn(CC)c2O)c1Cl [Example 134],logP = 2.07^a)
8,CCn1ncc(C(=O)c2ccc(Cl)c(OCCNS(=O)(=O)C(C)C)c2Cl)c1O [Example 24],logP = 2.07^a)
9,CCn1ncc(C(=O)c2ccc(S(C)(=O)=O)c(CN(C)OC)c2Cl)c1O [Example 11],logP = 1.78^a)

# Same assay, conditions: HPLC, reversed-phase C18, 43° C.; acidic range a): 0.1% aqueous phosphoric acid, acetonitrile, linear gradient 10% to 90% acetonitrile
row,SMILES,logP
1,CCN(Cc1c(S(C)(=O)=O)ccc(C(=O)C2C(=O)CCC(C)(C)C2=O)c1Cl)S(C)(=O)=O (stereo not shown) [Example 466],(I-2) logP = 2.64^a)
2,CCn1ncc(C(=O)c2ccc(Cl)c(CN(C)OC)c2OC)c1O [Example 479],logP = 2.35^a)
3,C=CCN(Cc1c(S(C)(=O)=O)ccc(C(=O)c2cnn(CC)c2O)c1Cl)S(C)(=O)=O [Example 461],logP = 1.63^a)
4,CCn1ncc(C(=O)c2ccc(Cl)c(OCCNS(C)(=O)=O)c2C)c1O [Example 360],logP = 1.82^a)
5,CCN(Cc1c(S(C)(=O)=O)ccc(C(=O)C2C(=O)CCC(C)(C)C2=O)c1Cl)OC (stereo not shown) [Example 405],(I-2) logP = 3.70^a)
6,CCN(Cc1c(S(C)(=O)=O)ccc(C(=O)c2cnn(C)c2O)c1Cl)OC [Example 369],logP = 1.84^a)
7,CN(Cc1c(S(C)(=O)=O)ccc(C(=O)C2C(=O)CCCC2=O)c1Cl)OCC1CCCCO1 (stereo not shown) [Example 438],(I-2) logP = 3.04^a)
8,CC(C)ON(Cc1c(S(C)(=O)=O)ccc(C(=O)C2C(=O)CCCC2=O)c1Cl)C(C)C [Example 420],logP = 3.99^a)
9,COc1c(C(=O)C2C(=O)CCCC2=O)ccc(Cl)c1CN(C)S(C)(=O)=O [Example 472],logP = 2.20^a)
10,CCn1ncc(C(=O)c2ccc(Cl)c(OCCNS(C)(=O)=O)c2Cl)c1O [Example 354],logP = 1.54^a)
11,CCONCc1c(Cl)ccc(C(=O)c2cnn(C)c2O)c1Cl [Example 450],logP = 1.67^a)
12,CCN(Cc1c(Cl)ccc(C(=O)C2C(=O)CC(C)CC2=O)c1OC)S(C)(=O)=O (stereo not shown) [Example 474],(I-2) logP = 2.81^a)
13,CCn1ncc(C(=O)c2ccc(S(C)(=O)=O)c(CN(C)S(C)(=O)=O)c2Cl)c1O [Example 452],logP = 1.25^a)
14,CCN(Cc1c(S(C)(=O)=O)ccc(C(=O)C2C(=O)CC(C)CC2=O)c1Cl)S(C)(=O)=O (stereo not shown) [Example 475],(I-2) logP = 2.32^a)
15,CCON(Cc1c(S(C)(=O)=O)ccc(C(=O)C2C(=O)CCCC2=O)c1Cl)C(C)C [Example 418],logP = 3.66^a)
16,CCN(Cc1c(S(C)(=O)=O)ccc(C(=O)C2C(=O)CCCC2=O)c1Cl)S(C)(=O)=O [Example 467],logP = 2.02^a)

row,SMILES,logP
1,CCn1ncc(C(=O)c2ccc(S(C)(=O)=O)c(CN(OC(C)C)C(C)C)c2Cl)c1O [Example 421],logP = 3.25^a)
2,CCn1ncc(C(=O)c2ccc(S(C)(=O)=O)c(CNOC3CCCC3)c2Cl)c1O [Example 422],(I-2) logP = 2.31^a)
3,CCn1ncc(C(=O)c2ccc(Br)c(OCCNS(=O)(=O)CC)c2C)c1O [Example 362],logP = 2.09^a)
4,CN(Cc1c(S(C)(=O)=O)ccc(C(=O)C2C(=O)CCCC2=O)c1Cl)OC1CCCC1 [Example 398],(I-2) logP = 3.69^a)
5,CON(Cc1c(S(C)(=O)=O)ccc(C(=O)c2cnn(C)c2O)c1Cl)C1CCCC1 [Example 378],(I-2) logP = 2.59^a)
6,Cc1c(C(=O)C2C(=O)CCCC2=O)ccc(Br)c1OCCNS(C)(=O)=O [Example 367],logP = 2.19^a)
7,Cc1c(C(=O)c2cnn(C)c2O)ccc(Br)c1OCCNS(C)(=O)=O [Example 366],logP = 1.56^a)
8,CCn1ncc(C(=O)c2ccc(S(C)(=O)=O)c(CN(C)OC(C)C)c2Cl)c1O [Example 395],logP = 2.33^a)
9,CCN(CC)C(=O)CN(Cc1c(S(C)(=O)=O)ccc(C(=O)c2cnn(C)c2O)c1Cl)OC [Example 388],(I-2) logP = 1.59^a)
10,CCONCc1c(Cl)ccc(C(=O)C2C(=O)CCC(C)(C)C2=O)c1Cl (stereo not shown) [Example 449],(I-2) logP = 3.64^a)
11,CCn1ncc(C(=O)c2ccc(S(C)(=O)=O)c(CN(C)OCC3CC3)c2Cl)c1O [Example 445],(I-2) logP = 2.05^a)
12,CCONCc1c(Cl)ccc(C(=O)C2C(=O)CCCC2=O)c1OC [Example 447],logP = 2.20^a)
13,CCN(Cc1c(S(C)(=O)=O)ccc(C(=O)c2cnn(CC)c2O)c1Cl)S(C)(=O)=O [Example 468],logP = 1.48^a)
14,CCN(Cc1c(Cl)ccc(C(=O)c2cnn(C)c2O)c1Cl)OC [Example 480],logP = 2.46^a)
15,CN(Cc1c(S(C)(=O)=O)ccc(C(=O)c2cnn(C)c2O)c1Cl)OCC1CCCCO1 (stereo not shown) [Example 440],(I-2) logP = 2.01^a)
16,CN(Cc1c(S(C)(=O)=O)ccc(C(=O)c2cnn(C)c2O)c1Cl)S(C)(=O)=O [Example 453],logP = 0.99^a)

# Same assay, conditions: HPLC, reversed-phase C 18, 43° C.; acidic range: 0.1% aqueous phosphoric acid, acetonitrile (marked a) or acidic)
row,SMILES,log P (acidic)
1,COC(=O)c1ccc(S(C)(=O)=O)c(CN(Cc2ccccn2)OC)c1Cl [VIII-41],logPacidic = 1.17
2,COC(=O)c1ccc(S(C)(=O)=O)c(CNOC2CCCC2)c1Cl [VIII-48],logPacidic = 2.93
3,CCN(Cc1c(Cl)ccc(C(=O)OC)c1OC)S(C)(=O)=O [VIII-71],logPacidic = 2.38
4,COC(=O)c1ccc(Br)c(OCCNS(C)(=O)=O)c1C [VIII-28],logPacidic = 2.20
5,COC(=O)c1ccc(S(C)(=O)=O)c(CN(C)OCC2CCCO2)c1Cl (stereo not shown) [VIII-64],logPacidic = 2.51
6,COC(=O)c1ccc(S(C)(=O)=O)c(CN(OC)C2CCOCC2)c1Cl [VIII-60],logPacidic = 2.38
7,COC(=O)c1ccc(S(C)(=O)=O)c(CN(OC)C(=O)C(C)C)c1Cl [VIII-51],logPacidic = 2.21
8,C=CCN(Cc1c(S(C)(=O)=O)ccc(C(=O)OC)c1Cl)S(C)(=O)=O [VIII-73],logPacidic = 2.03
9,COC(=O)c1ccc(S(C)(=O)=O)c(CN(OC)C(C)=O)c1Cl [VIII-39],logPacidic = 1.58
10,COC(=O)c1ccc(S(C)(=O)=O)c(CN(C)S(C)(=O)=O)c1Cl [VIII-69],logPacidic = 1.65
11,COCCON(C)Cc1c(S(C)(=O)=O)ccc(C(=O)OC)c1Cl [VIII-61],logPacidic = 2.26
12,COC(=O)c1ccc(S(C)(=O)=O)c(CN(Cc2ccccc2)OC)c1Cl [VIII-24],logPacidic = 3.42
13,COC(=O)c1ccc(Cl)c(OCCNS(C)(=O)=O)c1C [VIII-26],logPacidic = 2.14

# Same assay, conditions: HPLC, reversed-phase C 18, 43° C.; mobile phase range not marked
SMILES,"logP (HPLC, mobile phase not marked)",log P
CCN(Cc1c(S(C)(=O)=O)ccc(C(=O)C2C(=O)CCCC2=O)c1Cl)OC [Example 308],(I-2) 2.87,–
CCn1ncc(C(=O)c2ccc(S(C)(=O)=O)c(CNOCc3ccccc3)c2Cl)c1O [Example 349],2.31,–
CON(Cc1c(S(C)(=O)=O)ccc(C(=O)c2cnn(C)c2O)c1Cl)C(C)C [Example 345],2.16,–
CCOC(=O)c1ccc(Cl)c(OCCNS(=O)(=O)CC(F)(F)F)c1Cl [VIII-17],–,logP = 3.08
CCn1ncc(C(=O)c2ccc(S(C)(=O)=O)c(CN(OC)C(C)C)c2Cl)c1O [Example 344],2.52,–
CON(C)Cc1c(S(C)(=O)=O)ccc(C(=O)C2C(=O)CCCC2=O)c1Cl [Example 303],(I-2) 2.49,–
CCn1ncc(C(=O)c2ccc(S(C)(=O)=O)c(CN(Cc3ccccc3)OC)c2Cl)c1O [Example 334],2.82,–
CCOC(=O)c1ccc(Cl)c(OCCNS(=O)(=O)C(C)C)c1Cl [VIII-20],–,logP = 2.86
CONCc1c(Cl)ccc(C(=O)OC)c1Cl [VIII-6],–,logP = 2.26
CCOC(=O)c1ccc(Cl)c(OCCNS(=O)(=O)c2cccs2)c1Cl [VIII-18],–,logP = 3.20
CCCS(=O)(=O)NCCOc1c(Cl)ccc(C(=O)OCC)c1Cl [VIII-19],–,logP = 2.92

# Same assay, conditions: reversed-phase C18 HPLC column; HPLC, reversed-phase C 18, 43° C.; acidic range: 0.1% aqueous phosphoric acid, acetonitrile (marked a) or acidic); read-out: log P (acidic)
row,SMILES,chromatographic logP
1,COC(=O)c1ccc(S(C)(=O)=O)c(CN(OC)C(C)C)c1Cl [VIII-3],3.13

# Same assay, conditions: reversed-phase C18 HPLC column; HPLC, reversed-phase C 18, 43° C.; mobile phase range not marked; read-out: log P
row,SMILES,chromatographic logP
1,"CS(=O)(=O)NCCOc1c(Cl)ccc(C(=O)O)c1Cl [II-2, 2,4-dichloro-3-(2-methylsulphonylaminoethoxy)benzoic acid]",1.36
2,"CCOC(=O)c1ccc(Cl)c(OCCNC(=O)OC(C)(C)C)c1Cl [ethyl 2,4-dichloro-3-[2-[(t-butoxycarbonyl)amino]ethoxy]benzoate]",3.79

# — patent US7807703B2, “Substituted aryl ketones” (Bayer CropScience AG, priority 2002, dated 2010)
